In patent US20240140895A1, “NOVEL AROMATIC MOLECULES” (XENIOPRO GmbH, priority 2018, published 2024):

How the values were obtained:
Assay type in all cases: cell-based
[1] = system: HL-60 cells (human acute myeloid leukemia cells); experiment: Proliferation assay (alamarBlue) with HL-60 cells
Description: (§1) The antiproliferative activities of compounds falling under formula (Ia), (Tb) and (Ic), respectively, were investigated on cells or cell lines originating from a disorder of the haematopoietic system, including the myeloid cell compartment and the lymphoid cell compartment (T-cells and B-cells), the neuroendocrine system, the cervix, the breast, the ovaries, the lung, the gastrointestinal tract, and the mucosal epithelium, as well as from the skin epithelium and from the muscle. To this end, HL-60 cells, NB-4 cells, HH cells, RPMI-8402 cells, TANOUE cells, TT cells, HeLa cells, MDA-MB-231 cells, FU-OV-1 cells, LOU-NH91 cells, 23132/87 cells, CAL-27 cells, BHY cells, SCC-25 cells, A-431 cells, human primary epidermal keratinocytes (HPEK), and C2C12 cells were seeded into 96-well plates suitable for fluorescence assays (CORNING #3598) at following initial cell numbers: 1000 cells per well for HL-60; 1000 cells per well for NB-4; 5000 cells per well for HH; 5000 cells per well for RPMI-8402; 1500 cells per well for TANOUE; 9000 cells per well for TT; 2000 cells per well for HeLa; 3000 cells per well for MDA-MB-231; 3000 cells per well for FU-OV-1; 4000 cells per well for LOU-NH91; 2000 cells per well for 23132/87; 2000 cells per well for CAL-27; 1500 cells per well for BHY; 1500 cells per well for SCC-25; 700 cells per well for A-431; 1000 cells per well for HPEK; 500 cells per well for C2-C12. The cells were treated with compounds at indicated final concentrations (diluted from the 1000× stock-solutions in DMSO to a final DMSO concentration of 0.1% v/v in H2O (Water For Injection, WFI, Fisherscientific #10378939)) or with the empty carrier DMSO at 0.1% v/v as control for 5 days. At day 5 after starting the treatments the cells were subjected to the alamarBlue® Proliferation Assay (Bio-Rad Serotec GmbH, BUF012B) according to the protocol of the manufacturer. The readout was taken with a multi-well plate-reader in the fluorescence mode with applying a filter for excitation at 560 nm (band width 10 nm) and for emission at 590 nm (band width 10 nm). Control treatments for growth inhibition with commercial compounds such as Methotrexate (MTREX) and Resveratrol (RES) were included on every plate. Some of the test compounds of the present invention were obtained and applied as their salts. According cases are indicated in the column “Specification” in Table 30 to Table 62 and by their sum formula in Table 63.
(§2) The assays were performed in duplicate or more replicates of independent single experiments each containing a six-fold replicate for every condition. For every individual plate, the measured fluorescence intensity values of the conditions with compound treatment were normalized against the corresponding equally weighted arithmetic mean of the fluorescence intensity values of the six DMSO treated control wells in order to obtain the relative values to a baseline level of 1.0.
(§3) Two independent outlier analyses were performed according to the methods by Peirce and Chauvenet (Ross, Journal of Engineering Technology 2003, 1-12). Outliers confirmed by at least one of the methods were excluded from the calculations but not more than one value out of six per compound within a single experiment. The weighted arithmetic mean (here abbreviated as AVEw) for each compound was calculated from the normalized values over all independent replicates of the single experiments comprising the six replicates each. The corresponding standard deviation for the weighted arithmetic mean was calculated according to the method described by Bronstein et al. (Bronstein, Semendjajew, Musiol, Muhlig, Taschenbuch der Mathematik, 5th edition 2001 (German), publisher: Verlag Harri Deutsch, Frankfurt am Main and Thun) and was combined with the Gauβ′ error propagation associated with the performed calculation for the normalization. The resulting standard deviation is herein referred to as “combined standard deviation”. […]

[2] = system: NB-4 cells (human acute promyelocytic leukemia cells); experiment: Proliferation assay (alamarBlue) with NB-4 cells
Description: as §1, §2, §3

[3] = system: HH cells (human cutaneous T-cell lymphoma cells); experiment: Proliferation assay (alamarBlue) with HH cells; settings: Table 34, compound at 20 μM, read-out: Activity Range (AVEw, weighted arithmetic mean of normalized fluorescence intensity, DMSO = 1.0)
Description: as §1, §2, §3

[4] = system: MDA-MB-231 cells (human breast carcinoma cells); experiment: Proliferation assay (alamarBlue) with MDA-MB-231 cells
Description: as §1, §2, §3

[5] = system: FU-OV-1 cells (human ovarian carcinoma cells); experiment: Proliferation assay (alamarBlue) with FU-OV-1 cells
Description: (§4) The antiproliferative activities of compounds falling under formula (Ia), (Tb) and (Ic), respectively, were investigated on cells or cell lines originating from a disorder of the haematopoietic system, including the myeloid cell compartment and the lymphoid cell compartment (T-cells and B-cells), the neuroendocrine system, the cervix, the breast, the ovaries, the lung, the gastrointestinal tract, and the mucosal epithelium, as well as from the skin epithelium and from the muscle. To this end, HL-60 cells, NB-4 cells, HH cells, RPMI-8402 cells, TANOUE cells, TT cells, HeLa cells, MDA-MB-231 cells, FU-OV-1 cells, LOU-NH91 cells, 23132/87 cells, CAL-27 cells, BHY cells, SCC-25 cells, A-431 cells, human primary epidermal keratinocytes (HPEK), and C2C12 cells were seeded into 96-well plates suitable for fluorescence assays (CORNING #3598) at following initial cell numbers: 1000 cells per well for HL-60; 1000 cells per well for NB-4; 5000 cells per well for HH; 5000 cells per well for RPMI-8402; 1500 cells per well for TANOUE; 9000 cells per well for TT; 2000 cells per well for HeLa; 3000 cells per well for MDA-MB-231; 3000 cells per well for FU-OV-1; 4000 cells per well for LOU-NH91; 2000 cells per well for 23132/87; 2000 cells per well for CAL-27; 1500 cells per well for BHY; 1500 cells per well for SCC-25; 700 cells per well for A-431; 1000 cells per well for HPEK; 500 cells per well for C2-C12. […] The readout was taken with a multi-well plate-reader in the fluorescence mode with applying a filter for excitation at 560 nm (band width 10 nm) and for emission at 590 nm (band width 10 nm). […]
as §2, with “1.0. […]” for “1.0.”

[6] = system: 23132/87 cells (human gastric adenocarcinoma cells); experiment: Proliferation assay (alamarBlue) with 23132/87 cells; settings: read-out: Activity Range: weighted arithmetic mean (AVEw) of normalized fluorescence intensity relative to DMSO basis level 1.0
Description: as §1, §2, §3

[7] = system: CAL-27 cells (human tongue squamous cell carcinoma cells); experiment: Proliferation assay (alamarBlue) with CAL-27 cells; settings: read-out: Activity Range: weighted arithmetic mean (AVEw) of normalized fluorescence intensity relative to DMSO basis level 1.0
Description: as §1, §2, §3

[8] = system: SCC-25 cells (human tongue squamous cell carcinoma cells); experiment: Proliferation assay (alamarBlue) with SCC-25 cells
Description: as §1, §2, §3

[9] = system: A-431 cells (human epidermoid squamous cell carcinoma cells); experiment: Proliferation assay (alamarBlue) with A-431 cells
Description: as §1, §2, §3

[10] = system: C2C12 cells (murine myoblast cells); experiment: Proliferation assay (alamarBlue) with C2C12 cells; settings: Mus musculus, compound at 20 μM, read-out: Activity Range: weighted arithmetic mean (AVEw) of normalized fluorescence intensity, relative to DMSO basis level 1.0
Description: as §1, §2, §3

[11] = system: TT cells (human medullary thyroid carcinoma cells); experiment: Proliferation assay (alamarBlue) with TT cells
Description: as §4
as §2, with “1.0. […]” for “1.0.”

[12] = system: HeLa cells (human cervical adenocarcinoma cells); experiment: Proliferation assay (alamarBlue) with HeLa cells
Description: as §4
as §2, with “1.0. […]” for “1.0.”

[13] = Homo sapiens, read-out: Activity Range: weighted arithmetic mean (AVEw) of normalized fluorescence intensity relative to DMSO basis level 1.0

## Oc1ccc(C=Cc2cc(O)cc(O)c2)cc1 [RES, resveratrol, reference compound]
[1]; Homo sapiens, Table 30, compound at 20 μM, read-out: Activity Range (AVEw, weighted arithmetic mean of normalized fluorescence intensity, DMSO = 1.0)
  activity at 20 µM: 40 ± 10%
[1]; Table 31, compound at 20 μM
  Activity Range (AVEw, weighted arithmetic mean of normalized fluorescence intensity, DMSO = 1.0): 0.4 ± 0.1
[2]; Homo sapiens, Table 32, compound at 20 μM, read-out: Activity Range (AVEw, weighted arithmetic mean of normalized fluorescence intensity, DMSO = 1.0)
  activity at 20 µM: 10%
[2]; Table 33, compound at 20 μM
  Activity Range (AVEw, weighted arithmetic mean of normalized fluorescence intensity, DMSO = 1.0): 0.1 ± 0.0
[3]
  activity at 20 µM: 60 ± 10%
[4]; 20 μM
  Activity Range: weighted arithmetic mean (AVEw) of normalized fluorescence intensity relative to DMSO basis level 1.0: 0.6 ± 0.0
[4]; [13]
  activity at 20 µM: 60%
[5]; 20 μM
  Activity Range: weighted arithmetic mean (AVEw) of normalized fluorescence intensity relative to DMSO basis level 1.0: 0.7 ± 0.0
[5]; control at 40 μM
  Activity Range: weighted arithmetic mean (AVEw) of normalized fluorescence intensity relative to DMSO basis level 1.0: 0.4 ± 0.0
[6]
  activity at 20 µM: 50 ± 10%
[7]
  activity at 20 µM: 80 ± 10%
[8]; 20 μM
  Activity Range: weighted arithmetic mean (AVEw) of normalized fluorescence intensity relative to DMSO basis level 1.0: 0.4 ± 0.1
[8]; [13]
  activity at 20 µM: 40 ± 10%
[9]; Homo sapiens, 20 μM, read-out: Activity Range: weighted arithmetic mean (AVEw) of normalized fluorescence intensity relative to DMSO basis level 1.0
  activity at 20 µM: 60%
[9]; compound at 20 μM
  Activity Range: weighted arithmetic mean (AVEw) of normalized fluorescence intensity relative to DMSO basis level 1.0: 0.6 ± 0.0
[9]; control at 40 μM
  Activity Range: weighted arithmetic mean (AVEw) of normalized fluorescence intensity relative to DMSO basis level 1.0: 0.2 ± 0.0
[10]
  activity at 20 µM: 80%
[11]; compound at 20 μM
  Activity Range: weighted arithmetic mean (AVEw) of normalized fluorescence intensity relative to DMSO basis level 1.0: 0.9 ± 0.0
[11]; control at 40 μM
  Activity Range: weighted arithmetic mean (AVEw) of normalized fluorescence intensity relative to DMSO basis level 1.0: 0.7 ± 0.0
[12]; compound at 20 μM
  Activity Range: weighted arithmetic mean (AVEw) of normalized fluorescence intensity relative to DMSO basis level 1.0: 0.9 ± 0.0
[12]; control at 40 μM
  Activity Range: weighted arithmetic mean (AVEw) of normalized fluorescence intensity relative to DMSO basis level 1.0: 0.4 ± 0.1
